Where two headings read alike, the source gives them in different places.
Legend:
[1] = test system: 700022-resistant line of L. mexicana (r22) axenic amastigotes; assay: EC50 in 700022-resistant L. mexicana (r22) axenic amastigotes; assay type: cell-based, Leishmania mexicana; details: for r22 8 weeks RI (resistance index, EC50 in r22/EC50 in WT): 8 weeks of 700022 selection pressure
Procedure: (§1) A 700022-resistant line of L. mexicana (r22) was generated using a previously reported method (Figure S3). […] All leishmanicidal sterols identified were assayed against r22 after 8 weeks of 700022 pressure and cross-resistance was found against all four compounds, each with a similar resistance index of between 4–5 (Figure 6c). Following 28 weeks of selection, the morphology of the r22 promastigotes was compared to that of WT (Figure 6d). […] The body area of both promastigotes and amastigotes was also assessed, noting a small (c 20%) decrease in the body area of r22 parasites compared to WT strains (Figure S3).
Figure 6 Comparison between wildtype and 700022-resistant (r22) L. mexicana cell lines. Log concentration versus normalised (compared to untreated control) growth curves for wildtype (WT) and corresponding 700022-selected (r22) L. mexicana (a) promastigotes and (b) axenic amastigotes. Error bars represent upper and lower limits of the StDev (n = 9). […] The resistance index (EC50 in r22/EC50 in WT) are shown for each compound. (d) Scanning electron micrographs of WT and r22 promastigotes illustrating the shortened flagellum in r22 parasites. (e) Analysis of flagellum length in WT and r22 promastigotes (n = 287 of each strain) reported using a box and whisker plot (boxes represents the 25–75th percent distribution with the mean as a horizontal line, whiskers represent the distribution of all values) with a statistically significant difference (Mann–Whitney U test, p-value < 2.2 × 10^−16). […] Error bars represent upper and lower limits of the StDev (n = 9). […] The resistance index (EC50 in r22/EC50 in WT) are shown for each compound. TEXT PRINTED IN THE PICTURE: (c) 700022: 4.1 | (c) 700107: 4.1 | (c) 700136: 5.3 | (c) 700240: 5.3 | (f) 700022: 42.1 | (f) Milt: 17.9 | (f) Pent: 0.75 | (f) AmpB: 1.22 DOUBTS OF THE COPYIST ABOUT THIS PICTURE: Panels c and f: the numbers printed above the bar pairs have no measure or unit printed with them in the picture.
(§2) L. mexicana parasites were grown in increasing concentrations of 700022 in a stepwise manner, as previously described. […] A dose response assay of the newly selected promastigotes was completed as stated above, with the exception of the seeding density of 1 × 10^5 cells/mL. At this point, the drug pressure was increased to the concentration of the new EC50 value.

[2] = test system: WT L. mexicana procyclic promastigotes; assay: EC50 in WT L. mexicana promastigotes; assay type: cell-based; details: Leishmania mexicana, read-out: EC50 in WT promastigotes
Procedure: as §1, §2

[3] = test system: activated monocyte cell line (THP-1); assay: Cytotoxicity CC50, differentiated THP-1, Alamar Blue; assay type: cell-based, human; details: for CC50: differentiated THP-1, 48 h, read-out: THP1 CC50
HepG2 cells = assay: Cytotoxicity CC50, HepG2, Alamar Blue; details: read-out: HepG2 CC50; 48 h
Outline: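 Human hepatoma cells seeded at 1 × 10^5 cells/mL with two-fold serial compound dilutions, incubated 48 h at 37 °C, 5% CO2 in DMEM/10% FBS. Viability read by Alamar Blue. CC50 estimated from viability normalised to untreated controls versus log concentration.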

[4] = Leishmania mexicana, read-out: r22 8 weeks EC50, r22 after 8 weeks of 700022 selection pressure

SMILES | r22 8 weeks RI (resistance index, EC50 in r22/EC50 in WT) [1] | EC50 [1, 4] [µM] | CC50 [3] [µM] | CC50 (HepG2 cells) [µM] | also measured
CC1=CC(O)(CC(C)C2(C)CC=C3C4=CCC5C(C)(C)C(O)CCC5(C)C4CCC32C)OC1=O (stereo not shown) [Compound 700022] | 4.1 | 1 |  |  | EC50 ([1]; Leishmania mexicana, read-out: r22 28 weeks EC50, r22 after 28 weeks of 700022 selection pressure): 10.1 µM; EC50 ([1]; read-out: r22 28 weeks EC50, r22 after 28 weeks of 700022 selection pressure): 10 µM; EC50 [2]: 11.5 µM
CC1=CC(O)(CC(C)C2(C)CCC3C4=CCC5C(C)(CCC(O)C5(C)C)C4=CCC32C)OC1=O (stereo not shown) [Compound 700107] | 4.1 | 1.1 |  |  | 
CC1=CC(O)(CC(C)C2(C)CC=C3C4=CCC5C(C)(C)C(=O)CCC5(C)C4CCC32C)OC1=O (stereo not shown) [Compound 700136] | 5.3 | 1.1 |  |  | 
C/C(=C/C(=O)CC(C)C1CCC2(C)C3=CCC4C(C)(C)C(=O)CCC4(C)C3CCC12C)C(=O)O (stereo not shown) [Compound 700240] | 5.3 | 2.7 | 14 |  | selectivity index (THP-1 CC50 / L. mexicana EC50) ([3]; L. mexicana compared to THP-1): 21
C=C1C(=O)OC2CC(C)C3C=CC(=O)C3(C)C(OC(C)=O)C12 (stereo not shown) [Compound 701155] |  |  | 0.38 | 1.1 | 
C=C1C(=O)OC2CC(C)C3C=CC(=O)C3(C)C(OC(=O)C(C)CC)C12 (stereo not shown) [Compound 701158] |  |  |  | 0.81 | 

Reference: article PMC7998250, “Temperate Zone Plant Natural Products—A Novel Resource for Activity against Tropical Parasitic Diseases” (Pharmaceuticals, 2021)
